Results as given in patent publication US7517998B2, “Non nucleoside reverse transcriptase inhibitors” (priority 2004, dated 2009).
pIC50: −log10 of the molar value.

Target: T1, K103NNY181C mutant reverse transcriptase (Human immunodeficiency virus type 1 group M subtype B, UniProt P04585, K690N/Y768C)
T1 construct: mutations that occur in the reverse transcriptase segment of the pol gene
Assay: Reverse transcriptase enzymatic assay (PicoGreen), K103N/Y181C mutant RT
Format: biochemical, HIV-1
Settings: IC50 mut, enzymatic assay of Example 24
Protocol: The enzymatic assay employed is described as follows: The reverse transcriptase (RT) enzyme assay has been adapted to a 96-well microtiter plate format and uses PicoGreen™ as a fluorescent intercalator. More explicitly, the HIV-1 RT enzyme was thawed and appropriately diluted into Tris/HCl 50 mM pH 7.8 containing NaCl 60 mM, MgCl2.6H2O 2 mM, DTT 6 mM, GSH 2 mM and 0.02% w/v Chaps to give ≈10 nM enzyme. To 10 μL of this enzyme solution was added 10 μL of inhibitor solution (40 μM to 2.032 nM inhibitor in the same assay buffer as above containing 4% v/v DMSO). The plate was pre-incubated for 15 minutes at room temperature before proceeding to the next step. In this pre-incubation step, the highest and lowest inhibitor concentrations were 20 μM and 1.016 nM respectively and the concentration of DMSO was 2% v/v. Then the enzymatic reaction was initiated by addition of 20 μL of substrate solution. The final reaction mixture contained Tris/HCl 50 mM pH 7.8, NaCl 60 mM, MgCl2.6H2O 2 mM, DTT 6 mM, GSH 2 mM, CHAPS 0.02% w/v, DMSO 1% v/v, poly rC 45 nM, dG15 4.5 nM, dGTP 3.6 μM, and 2.5 nM enzyme. In this incubation step, the highest and lowest inhibitor concentrations were 10 μM and 0.508 nM respectively. After addition of the substrate cocktail, the plate was covered with a plastic seal and incubated for 50 minutes at 37° C. in a dry incubator. The reaction was then quenched by addition of 5 μL of EDTA 0.5 M. The plate was shaken for 30 seconds at medium speed and incubated for 5 minutes at room temperature. Then 160 μL of PicoGreen™ 1:400 dilution from commercial stock (diluted in Tris 20 mM pH 7.5 with EDTA 1 mM) was added and the plate was shaken for 30 seconds and incubated for 10 minutes at room temperature. The plate was then analyzed using a POLARstar Galaxy fluorometer (BMG Labtechnologies) with λex and λem of 485 nm and 520 nm respectively. Each well was read for 1.25 second. Each row contained at its extremities a blank and a control well.

[1] = K103N/Y181C mutant reverse transcriptase

## CC(C)(C)c1ccc(-n2nnnc2SCC(=O)Nc2ccc(-c3cccc(C(=O)O)c3)cc2Cl)c(Cl)c1 [Compound 3022]
Mutant reverse transcriptase
  pIC50: 7.30

## CC(C)NS(=O)(=O)c1ccc(NC(=O)CSc2nnnn2-c2ccc(C(C)(C)C)cc2Cl)c(Cl)c1 [Compound 3023]
Mutant reverse transcriptase
  pIC50: 6.55

## CC(C)(C)c1ccc(-n2nnnc2SCC(=O)Nc2ccc(S(=O)(=O)NCCc3ccccc3)cc2Cl)c(Cl)c1 [Compound 3024]
Mutant reverse transcriptase
  pIC50: 6.29

## CN(C)S(=O)(=O)c1ccc(NC(=O)CSc2nnnn2-c2ccc(C(C)(C)C)cc2Cl)c(Cl)c1 [Compound 3025]
Mutant reverse transcriptase
  pIC50: 6.66

## CC(C)(C)c1ccc(-n2nnnc2SCC(=O)Nc2ccc(S(=O)(=O)Nc3ccccc3)cc2Cl)c(Cl)c1 [Compound 3026]
Mutant reverse transcriptase
  pIC50: 6.37

## CC(C)(C)c1ccc(-n2nnnc2SCC(=O)Nc2ccc(S(=O)(=O)NCCO)cc2Cl)c(Cl)c1 [Compound 3027]
Mutant reverse transcriptase
  pIC50: 7.09

## CC(C)(C)c1ccc(-n2nnnc2SCC(=O)Nc2ccc(S(=O)(=O)NCc3ccccc3)cc2Cl)c(Cl)c1 [Compound 3028]
Mutant reverse transcriptase
  pIC50: 6.36

## CC(C)(C)c1ccc(-n2nnnc2SCC(=O)Nc2ccc(-c3ncc[nH]3)cc2Cl)c(Cl)c1 [Compound 3029]
Mutant reverse transcriptase
  pIC50: 7.12

## CC(C)(C)c1ccc(-n2nnnc2SCC(=O)Nc2ccc(-c3ccc(C(=O)O)s3)cc2Cl)c(Cl)c1 [Compound 3030]
Mutant reverse transcriptase
  pIC50: 7.55

## CC(C)(C)c1ccc(-n2nnnc2SCC(=O)Nc2ccc(-c3ccc(/C=C/C(=O)O)s3)cc2Cl)c(Cl)c1 [Compound 3031]
Mutant reverse transcriptase
  pIC50: 7.81

## CC(C)(C)c1ccc(-n2nnnc2SCC(=O)Nc2ccc(S(=O)(=O)NCC(=O)O)cc2Cl)c(Cl)c1 [Compound 3032]
Mutant reverse transcriptase
  pIC50: 7.01

## CC(C)(C)c1ccc(-n2nnnc2SCC(=O)Nc2ccc(OCCN3CCCCC3)cc2Cl)c(Cl)c1 [Compound 3033]
Mutant reverse transcriptase
  pIC50: 6.70

## CC(C)(C)c1ccc(-n2nnnc2SCC(=O)Nc2ccc(OCCN3CCOCC3)cc2Cl)c(Cl)c1 [Compound 3034]
Mutant reverse transcriptase
  pIC50: 6.95

## COC(=O)C1CCN(CCOc2ccc(NC(=O)CSc3nnnn3-c3ccc(C(C)(C)C)cc3Cl)c(Cl)c2)CC1 [Compound 3035]
Mutant reverse transcriptase
  pIC50: 6.45

## CN1CCN(S(=O)(=O)c2ccc(NC(=O)CSc3nnnn3-c3ccc(C4CC4)cc3Cl)c(Cl)c2)CC1 [Compound 3036]
Mutant reverse transcriptase
  pIC50: 7.06

## CN1CCN(NS(=O)(=O)c2ccc(NC(=O)CSc3nnnn3-c3ccc(C4CC4)cc3Cl)c(Cl)c2)CC1 [Compound 3037]
Mutant reverse transcriptase
  pIC50: 6.95

## O=C(CSc1nnnn1-c1ccc(C2CC2)cc1Cl)Nc1ccc(-c2ccc(OCCN3CCCCC3)c(Cl)c2)cc1Cl [Compound 3038]
Mutant reverse transcriptase
  pIC50: 6.78

## CNC(=O)NS(=O)(=O)c1ccc(NC(=O)CSc2nnnn2-c2ccc(C3CC3)cc2Cl)c(Cl)c1 [Compound 3039]
Mutant reverse transcriptase
  pIC50: 6.57

## COC(=O)NS(=O)(=O)c1ccc(NC(=O)CSc2nnnn2-c2ccc(C3CC3)cc2Cl)c(Cl)c1 [Compound 3040]
Mutant reverse transcriptase
  pIC50: 6.63

## C/C(=C\c1ccc(NC(=O)CSc2nnnn2-c2ccc(C3CC3)cc2Cl)c(Cl)c1)C(=O)O [Compound 3041]
Mutant reverse transcriptase
  pIC50: 7.03

## O=C(CSc1nnnn1-c1ccc(C2CC2)cc1Cl)Nc1ccc(S(=O)(=O)N2CCC(C(=O)O)CC2)cc1Cl [Compound 3042]
Mutant reverse transcriptase
  pIC50: 6.41

## COC(=O)C=C(C)c1ccc(NC(=O)CSc2nnnn2-c2ccc(C3CC3)cc2Cl)c(Cl)c1 [Compound 3044]
Mutant reverse transcriptase
  pIC50: 7.23

## CC(C)(COc1ccc(NC(=O)CSc2nnnn2-c2ccc(C3CC3)cc2Cl)c(Cl)c1)C(=O)O [Compound 3046]
Mutant reverse transcriptase
  pIC50: 6.98

## CC(C)(C)c1ccc(-n2nnnc2SCC(=O)Nc2ccc(C#Cc3ccccc3)cc2Cl)c(Cl)c1 [Compound 4002]
[1]
  pIC50: 6.57

## CC(C)(C)c1ccc(-n2nnnc2SCC(=O)Nc2ccc(C#CCCCCO)cc2Cl)c(Cl)c1 [Compound 4003]
[1]
  pIC50: 6.19

## CC(C)(C)c1ccc(-n2nnnc2SCC(=O)Nc2ccc(C#CCCCO)cc2Cl)c(Cl)c1 [Compound 4004]
[1]
  pIC50: 7.80

## CC(C)(O)C#Cc1ccc(NC(=O)CSc2nnnn2-c2ccc(C(C)(C)C)cc2Cl)c(Cl)c1 [Compound 4005]
[1]
  pIC50: 7.70

## CC(C)(C)c1ccc(-n2nnnc2SCC(=O)Nc2ccc(C#CCO)cc2Cl)c(Cl)c1 [Compound 4006]
[1]
  pIC50: 7.96

## Cc1cc(C)c(-n2nnnc2SCC(=O)Nc2ccc(C#CC(C)(C)O)cc2Cl)c(Cl)c1 [Compound 4007]
[1]
  pIC50: 7.42

## CCN(CC)CC#Cc1ccc(NC(=O)CSc2nnnn2-c2ccc(C(C)(C)C)cc2Cl)c(Cl)c1 [Compound 4008]
[1]
  pIC50: 7.03

## CCCC#Cc1ccc(NC(=O)CSc2nnnn2-c2ccc(C(C)(C)C)cc2Cl)c(Cl)c1 [Compound 4009]
[1]
  pIC50: 8.05

## CC(C)(C)c1ccc(-n2nnnc2SCC(=O)Nc2ccc(C#CCN3CCOCC3)cc2Cl)c(Cl)c1 [Compound 4010]
[1]
  pIC50: 7.57

## CC(C)(C#Cc1ccc(NC(=O)CSc2nnnn2-c2ccc(C(C)(C)C)cc2Cl)c(Cl)c1)C(=O)O [Compound 4011]
[1]
  pIC50: 7.60

## CC(C)(C)c1ccc(-n2nnnc2SCC(=O)Nc2ccc(C#CCN3CCCC3)cc2Cl)c(Cl)c1 [Compound 4012]
[1]
  pIC50: 7.34

## CC(C)(C#Cc1ccc(NC(=O)CSc2nnnn2-c2ccc(C(C)(C)C)cc2Cl)c(Cl)c1)C(=O)NCCN1CCOCC1 [Compound 4013]
[1]
  pIC50: 7.21

## CC(C)(C)c1ccc(-n2nnnc2SCC(=O)Nc2ccc(C#CCN3CCCCC3)cc2Cl)c(Cl)c1 [Compound 4014]
[1]
  pIC50: 7.06

## CN1CCN(CC#Cc2ccc(NC(=O)CSc3nnnn3-c3ccc(C(C)(C)C)cc3Cl)c(Cl)c2)CC1 [Compound 4015]
[1]
  pIC50: 7.40

## CC(C)(C#Cc1ccc(NC(=O)CSc2nnnn2-c2ccc(C(C)(C)C)cc2Cl)c(Cl)c1)CO [Compound 4016]
[1]
  pIC50: 7.46

## CC(C)(C#Cc1ccc(NC(=O)CSc2nnnn2-c2ccc(C(C)(C)C)cc2Cl)c(Cl)c1)OCC(=O)O [Compound 4020]
[1]
  pIC50: 7.48

## CC(C)(O)C#Cc1ccc(NC(=O)CSc2nnnn2-c2cc(C#N)ccc2Cl)c(Cl)c1 [Compound 4021]
[1]
  pIC50: 6.44

## CC(C)(O)C#Cc1ccc(NC(=O)CSc2nnnn2-c2c(F)ccc(C(F)(F)F)c2Cl)c(Cl)c1 [Compound 4022]
[1]
  pIC50: 6.73

## CN1CCN(C(=O)COC(C)(C)C#Cc2ccc(NC(=O)CSc3nnnn3-c3ccc(C(C)(C)C)cc3Cl)c(Cl)c2)CC1 [Compound 4023]
[1]
  pIC50: 7.19

## CC(C)(C#Cc1ccc(NC(=O)CSc2nnnn2-c2ccc(C(C)(C)C)cc2Cl)c(Cl)c1)OCC(=O)Nc1ccc(O)cc1 [Compound 4024]
[1]
  pIC50: 7.46

## CC(C)(C#Cc1ccc(NC(=O)CSc2nnnn2-c2ccc(C(C)(C)C)cc2Cl)c(Cl)c1)OCC(=O)Nc1cccc(C(=O)O)c1 [Compound 4025]
[1]
  pIC50: 7.36

## CC(C)(C#Cc1ccc(NC(=O)CSc2nnnn2-c2ccc(C(C)(C)C)cc2Cl)c(Cl)c1)OCC(=O)Nc1ccc(/C=C/C(=O)O)cc1 [Compound 4026]
[1]
  pIC50: 7.20

## CC(C)(O)C#Cc1ccc(NC(=O)CSc2nnnn2-c2cc(F)cc(C(F)(F)F)c2Cl)c(Cl)c1 [Compound 4029]
[1]
  pIC50: 6.67

## Cc1cc(C(F)(F)F)cc(-n2nnnc2SCC(=O)Nc2ccc(C#CC(C)(C)O)cc2Cl)c1Cl [Compound 4030]
[1]
  pIC50: 7.68

## Cc1cc(-n2nnnc2SCC(=O)Nc2ccc(C#CC(C)(C)O)cc2Cl)c(Cl)c(C(F)(F)F)c1 [Compound 4031]
[1]
  pIC50: 6.58

## CC(C)(C)c1ccc(-n2nnnc2SCC(=O)Nc2ccc(C#CC3CC3)cc2Cl)c(Cl)c1 [Compound 4032]
[1]
  pIC50: 7.41

## CC(C)(C#Cc1ccc(NC(=O)CSc2nnnn2-c2ccc(C(C)(C)C)cc2Cl)c(Cl)c1)COC(N)=O [Compound 4033]
[1]
  pIC50: 7.44

## CC(C)(C)c1ccc(-n2nnnc2SCC(=O)Nc2ccc(C#CCOC(N)=O)cc2Cl)c(Cl)c1 [Compound 4034]
[1]
  pIC50: 8.05

## CNCCOC(=O)COC(C)(C)C#Cc1ccc(NC(=O)CSc2nnnn2-c2ccc(C(C)(C)C)cc2Cl)c(Cl)c1 [Compound 4035]
[1]
  pIC50: 7.25

## CC(C)(C#Cc1ccc(NC(=O)CSc2nnnn2-c2ccc(C(C)(C)C)cc2Cl)c(Cl)c1)OCC(=O)NC1(C(=O)O)CC1 [Compound 4036]
[1]
  pIC50: 7.44

## CC(C)(C#Cc1ccc(NC(=O)CSc2nnnn2-c2ccc(C(C)(C)C)cc2Cl)c(Cl)c1)OCC(=O)NCc1ccco1 [Compound 4037]
[1]
  pIC50: 7.18

## CC(C)(C#Cc1ccc(NC(=O)CSc2nnnn2-c2ccc(C(C)(C)C)cc2Cl)c(Cl)c1)OCC(=O)N1CCCC1 [Compound 4038]
[1]
  pIC50: 7.12

## CC(C)(C#Cc1ccc(NC(=O)CSc2nnnn2-c2ccc(C(C)(C)C)cc2Cl)c(Cl)c1)OCC(=O)N1CCOCC1 [Compound 4039]
[1]
  pIC50: 7.40

## CC(C)(C#Cc1ccc(NC(=O)CSc2nnnn2-c2ccc(C(C)(C)C)cc2Cl)c(Cl)c1)OCC(=O)Nc1cnccn1 [Compound 4040]
[1]
  pIC50: 7.24

## CC(C)(C#Cc1ccc(NC(=O)CSc2nnnn2-c2ccc(C(C)(C)C)cc2Cl)c(Cl)c1)OCC(=O)Nc1ccncc1 [Compound 4041]
[1]
  pIC50: 7.46
